Like-named read-outs stand apart in the source and are kept apart here.
Experiment: physchem
Type: physicochemical
Settings: for pKa: water soluble analogue
Procedure: The pH-dependence of proton NMR chemical shifts was used to measure the pKa's of the ionizable lipid water-soluble analogues (WSA) following published methods5,6. Chemical shifts of piperazine, imidazole, 2-chloroacetic acid and acetic acid were used as internal pH indicators. Solutions for MC3-WSA were prepared with 100 mM KCl, 2 mM piperazine, 2 mM imidazole, and 5 mM water soluble ionizable lipid analogue in 95% H2O-5% D2O. Solutions for the terminal(N1) and aza amines(N2) at the p-position of carboxylic esters of C24-WSA were prepared with 100 mM KCl, 2 mM piperazine, 2 mM imidazole, 0.2 mM DSS, and 5 mM water soluble ionizable lipid analogue in 95% H2O-5% D2O. Solutions for the internal amine (N3) of C24-WSA were prepared with 100 mM KCl, 2 mM chloroacetic acid, 2 mM acetic acid, 0.2 mM DSS, and 5 mM water soluble ionizable lipid analogue in 95% H2O-5% D2O. Solutions were split into two equal volumes and one titrated to a lower pH using 0.1 M HCl and the other to an upper pH using 0.1 M NaOH where the lower and upper pH bracketed the desired range of pH. Intermediate pH values were obtained by mixing different proportions of these two solutions. NMR measurements were performed on a Bruker 400 MHz spectrometer where 1H spectra were acquired at each of ˜24 pH values ranging from the lower to upper pH. […] Chemical shifts from piperazine, imidazole, 2-chloroacetic acid, and acetic acid were then used to calculate the pH of each solution according to published methods5,6 and the chemical shifts of protons adjacent to each nitrogen in the ionizable lipid water sluble analogue headgroup were fit to the Henderson-Hasselbalch equation to provide the pKa of each Nitrogen. Spectra are in Supplementary FIG. 2.

Structure (SMILES): CN1CCN(CCCCN(CCC(=O)OC(C)(C)C)CCC(=O)OC(C)(C)C)CC1 [Lipid C24-WSA]
- difference between NMR-measured and theoretical pKas: ≤ 0.4 units
- pKa (read-out: pKa by 1H NMR, central nitrogen): 3.7
- pKa (read-out: pKa by 1H NMR, nitrogen closest to the linker): 7.5
- pKa (read-out: pKa by 1H NMR, terminal nitrogen): 8.1

— US12576040B2, “Ionizable lipids and methods of manufacture and use thereof” (priority 2020, dated 2026)
